# “Also recorded” adds a separate entry of the source.
# Key:
# [1] = tested on: A9 metastatic tumour cells; experiment: In vivo tumour trial; design: species or system C57BL/6 mice; conditions: daily i.p. for 12 days; for anti-tumour effect compared among the treatments / tumour volume / tumour growth compared to vehicle control: A9 tumours; for anti-tumour effect compared among the treatments: 5.2 mg/kg; for tumour volume / tumour growth compared to vehicle control / body weight: P02-113 and P03-97-1 5.2 mg/kg, TSA 0.5 mg/kg
# Experimental: The metastatic cell line, A9, was grown in the DMEM, as previously described without, the addition of antibiotics (penicillin and streptomycin, P/S). Once cells reached 75-80% confluence, they were trypsinized (0.05%, Gibco) and washed with HBSS (Hanks balanced salt solution). The cells were counted using the Bio-RAD TC20 automated cell counter and suspended to a concentration of […] in HBSS. Thirty-two synergistic female C57BL/6 mice, between the ages 6-8 weeks, were subcutaneously injected in the right flank with 50 μL containing 5×10^4 A9 metastatic tumour cells. Seven days following tumour inoculation i.p. treatment began daily for 12 days. Four treatment groups were studied, with eight animals per group. […] Body weights were measured three times a week and once tumours developed they were measured with calipers and tumour volume was calculated. Twelve days after starting treatment, mice were euthanized and tumours were collected and weighed. The tumours were then processed for flow cytometry analysis. Tumours were cut into small pieces and incubated RPMI (Gibco; with P/S 0.5%, Sodium pyruvate 1%, and L-glutamine 1%) and 3 mg/mL collagenase A (Roche) for one hour at 37° C. with shaking. Dissociated tumour cells were passed through a 100 μm filter and spun down at 15,000×RCF for 3 minutes. The pellet was washed once in FACs buffer (2% FBS in PBS) and spun down. The pellet was next suspended in red blood cell (RBC) lysis buffer and kept at room temperature for 5 minutes before being neutralized by the addition of 5 ml of PBS and spun down. If pellets were still found to contain RBCs this step was repeated. Once all RBCs were removed cells were suspended in FACs buffer to a concentration of 10^7 cells/mL. A total volume of 200 ul of cells from each tumour were added to a 96 well plate (Falcon) and incubated with Fc Blocker (Biolegend, 1:400) for twenty minutes at 4° C. The 96 well plate was spun down at 1,200 rmp for three minutes and supernatant was removed. The cells were then suspended in 150 ul of FACs buffer containing anti-CD8a (PE-Cy7, 1:200, eBioscience) and CD4 (APC, 1:200, Biolegend) antibodies and incubated at 4° Celsius for 20 minutes. The cells were washed twice and spun down using FACs buffer before being to flow cytometry tubes in a final volume of 200 ul of FACs buffer containing 7AAD (Biolegend 1:200). Flow cytometry was performed on LSRII (BDBiosciences) and analysis was done using FlowJo (Flow cytometry Analysis Software).
# Treatment of tumour-bearing mice with identified compounds. 5×10^4 A9 cells suspended in HBSS were subcutaneously (s.c.) transplanted into the right flank of 32 eight-week-old female C57BI/6 mice, as previously described 75. […] Body weight and tumours (once established) were measured every 2-4 days (more often as tumour size increased). Tumours were measured using calipers and volume was calculated as following: tumour volume=length×width^2. The tumour growth rate was assessed using methods previously described^28.
# SIRT1 = molecular target: T1, SIRT1 (Homo sapiens, UniProt Q96EB6); experiment: Individualized HDAC assay, SIRT1; format: biochemical; conditions: purified enzyme, 5 to 0.02 μM
# T1 construct: purchased BPS Biosciences
# T1 sequence (Q96EB6 1-747): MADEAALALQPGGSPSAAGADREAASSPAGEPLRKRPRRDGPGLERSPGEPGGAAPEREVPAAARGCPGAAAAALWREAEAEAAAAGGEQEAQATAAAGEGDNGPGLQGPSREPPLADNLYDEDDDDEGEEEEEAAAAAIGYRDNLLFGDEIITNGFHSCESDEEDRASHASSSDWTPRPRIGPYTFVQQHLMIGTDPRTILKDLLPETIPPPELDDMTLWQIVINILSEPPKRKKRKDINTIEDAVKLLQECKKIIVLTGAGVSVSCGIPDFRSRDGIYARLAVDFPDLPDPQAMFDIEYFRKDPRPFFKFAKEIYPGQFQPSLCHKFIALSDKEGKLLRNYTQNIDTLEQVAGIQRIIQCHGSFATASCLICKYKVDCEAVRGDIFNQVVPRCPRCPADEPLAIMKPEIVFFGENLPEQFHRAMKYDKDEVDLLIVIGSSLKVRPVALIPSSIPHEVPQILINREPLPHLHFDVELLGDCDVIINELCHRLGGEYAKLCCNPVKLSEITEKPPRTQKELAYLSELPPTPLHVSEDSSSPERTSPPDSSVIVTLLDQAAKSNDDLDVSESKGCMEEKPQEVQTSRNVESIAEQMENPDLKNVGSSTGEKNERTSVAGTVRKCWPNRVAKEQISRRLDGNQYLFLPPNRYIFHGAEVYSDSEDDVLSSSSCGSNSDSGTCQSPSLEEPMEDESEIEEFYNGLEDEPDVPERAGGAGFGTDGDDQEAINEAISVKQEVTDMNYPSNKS
# Experimental: The activity of the curcuphenol analogues was assessed with purified HDAC enzymes from all classes I, II, and IV, as well as a select member of HDAC class III (SIRT1). HDACs 1-9 and SIRT1 were evaluated using HDAC Fluorogenic Assay Kits (BPS Biosciences). All assays were completed in black-sided clear-bottom 96 well plates (PerkinElmer), and all treatments were plated in triplicates. Treatment started at 5 μM and was two-fold diluted to a concentration 0.02 μM. The assays were measured using the Synergy HI hybrid reader (BioTek) and Gen5 software (BioTek), excitation was set to 360 nm and detection was measured at 450 nm with a gain of 100. Alternatively HDAC 10 and 11 (BPS Biosciences) were optimized for HDAC concentration using the HDAC-Glo™ I/II Assay and Screening System (Promega). Following optimization each HDAC was run following the Promega protocol in black-sided clear-bottomed 96 well plates in triplicates with same treatments listed above (PerkinElmer). Luminescence was read 30 minutes after HDAC-Glo™I/II reagent was added using the Synergy HI hybrid reader (BioTek) and Gen5 software (Bio-Tek). […] To calculate percent activity, the average of blank wells was subtracted from all treatment groups. The relative mean of activity of the HDAC being measured was determined and all wells that received treatment were divided this average, to give a percentage of activity.
# To evaluate the effect of the compounds on specific HDACs, their activity was assessed with purified HDAC enzymes from all classes I, II, and IV, as well as a select member of HDAC class III (SIRT1). HDACs 1-9 and SIRT1 were evaluated using HDAC Fluorogenic Assay Kits (BPS Biosciences) following the manufacturer's recommendations. Compound treatment started at 5 μM and was two-fold diluted to a concentration 0.02 μM. Alternatively, HDAC 10 and 11 assays (BPS Biosciences) were optimized to be used with the HDAC-Glo™ I/II Assay and Screening System (Promega). The assays were measured using the Synergy HI hybrid reader (BioTek) and Gen5 software (Bio-Tek). […] To calculate the fold change in HDAC activity, the values from each treated well were divided by the relative mean of activity of the specific HDAC being measured.
Structure (SMILES),anti-tumour effect compared among the treatments [1],tumour volume / tumour growth compared to vehicle control [1],body weight [1],SIRT1 activity (SIRT1),SIRT1 activity (SIRT1; listed as P03-7-1),SIRT1 activity (SIRT1; listed as PO-3-97-1),tumour volume / tumour growth compared to vehicle control ([1]; listed as PC-02-113)
COc1ccc(C(C)CCC=C(C)C)c(O)c1 (centres unmarked) [P03-97-1],significant anti-tumour effect; also recorded: greater reduction in tumour burden,reduced; also recorded: statistically significant reduction of tumour volume; also recorded: suppresses growth of tumors,remained stable; also recorded: no significant changes,did not demonstrate a change in activity,no change in activity,no effect was observed,
CC(C)=CCCCc1ccc(C)cc1O [P02-113],not found to be as significant as P03-97-1 or TSA; also recorded: slightly larger,reduced; also recorded: statistically significant reduction of tumour volume,remained stable; also recorded: no significant changes,did not demonstrate a change in activity; also recorded: no effect was observed; also recorded: no change in activity,,,suppresses growth of tumors
